In patent US11883372B2, “Pharmaceutical composition” (MEXICHEM FLUOR S.A. DE C.V., priority 2016, dated 2024):

Assay: In vitro aerosolization performance of MDI formulations (Next Generation Impactor, HPLC)
Format: physicochemical
Settings: for FPFED (%) fine particle fraction of the emitted dose / Fine particle Dose (μg ± S.D.) / MMAD ± GSD / Emitted Dose (μg ± S.D.): NGI at 30 L.min^−1; for MMAD ± GSD: in µm (unit assumed); for Emitted Dose (μg ± S.D.): nominal dose salmeterol xinafoate 25 μg, fluticasone propionate 125 μg
Procedure: The nominal dose of salmeterol xinafoate was 25 μg and the nominal dose of fluticasone propionate was 125 μg.
A 100 mm×4.6 mm Ascentis Express […] column with a 2.7 μm particle size was used for the analysis.

[1] = combination MDI formulation in HFA-134a
[2] = combination MDI formulation in HFA-152a

CCC(=O)O[C@]1(C(=O)SCF)[C@H](C)C[C@H]2[C@@H]3C[C@H](F)C4=CC(=O)C=C[C@]4(C)[C@@]3(F)[C@@H](O)C[C@@]21C [Fluticasone Propionate, fluticasone propionate]
fine particle fractions of the emitted doses upon aerosolization, HFA-152a compared with HFA-134a (HFA-152a used as the propellant, versus HFA-134a (Tables 2 and 3)): significantly better
FPFED (%) fine particle fraction of the emitted dose [1]: 31.0%
Fine particle Dose (μg ± S.D.) [1]: 31.6 ± 3.3 µg
MMAD ± GSD [1]: 3.8 ± 2.5
Emitted Dose (μg ± S.D.) [1]: 101.7 ± 8.7 µg
FPFED (%) fine particle fraction of the emitted dose [2]: 40.0%
Fine particle Dose (μg ± S.D.) [2]: 43.5 ± 3.4 µg
MMAD ± GSD [2]: 2.9 ± 2.1
Emitted Dose (μg ± S.D.) [2]: 108.7 ± 1.1 µg
